Five molecules from patent US11224601B1, “Compounds that inhibits MCL-1 protein” (priority 2017, dated 2022) can be followed below.

For orientation: IC50 means the midpoint of a concentration-inhibition curve.

The subject of one experiment is OPM-2 Luc cells. The experiment can be described thus: Tumor Pharmacodynamics (PD) model. The settings on record: dosed orally to female athymic nude mice inoculated with OPM-2 Luc cells; compared with Reference Compound 1. It is filed as in vivo. The text has this: Tumor Pharmacodynamics (PD)
FIGS. 1-7 illustrate the PD results of the cited Examples. The Reference Compound 1, an internal Amgen MC1-1 inhibitor compound made by one of the general schemes outlined in U.S. Pat. No. 9,562,061, herein incorporated by reference, is (1S,3′R,6′R,7′S,8′E,12′R)-6-chloro-12′-ethyl-7′-methoxy-3,4-dihydro-2H,15′H-spiro[naphthalene-1,22′-[20]oxa[13]thia[1,14]diazatetracyclo[14.7.2.0˜3,6˜.0˜19,24˜]pentacosa[8,16,18,24]tetraen]-15′-one 13′,13′-dioxide

For experiment [1], the system named is OPM-2 human multiple myeloma cell line. The experiment can be described thus: Cell Viability Assay (OPM-2 10 FBS), CellTiter-Glo. As to conditions: Homo sapiens, OPM-2, 16 h, read-out: OPM-2 10% FBS IC50 IP (μM), OPM-2 cells, 10% FBS, 16 h, CellTiter-Glo. It is filed as cell-based. The gist of the method:
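Compounds, serially diluted, were left on OPM-2 cells (3000 cells/well, 10% FBS RPMI 1640) for 16 h at 37° C. under 5% CO2.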
(ATP-based viability assays read luminescence as a measure of living cells.)

Experiment [2] deals with recombinant human Mcl-1 (Mcl-1/Bim interaction) (Homo sapiens (Human), UniProt Q07820). The experiment can be described thus: biochemical. The settings on record: cell free Mcl-1:Bim TR-FRET; read-out: Mcl-1 HTRF IC50. The class given is binding. A general note: Time-resolved FRET reads energy transfer from a long-lived donor to a nearby acceptor.
Protocol: Cell free Mcl-1:Bim Affinity Assay (Mcl-1 HTRF)
The inhibition of the Mcl-1/Bim interaction was measured using a time-resolved fluorescence resonance energy transfer (TR-FRET) assay. The recombinant human Mcl-1 (C-terminally 6×His tagged Mcl-1 containing residues 171-327) was generated at Amgen Inc (Thousand Oaks, Calif.). A biotinylated peptide derived from human Bim (residues 51-76) was purchased from CPC Scientific (San Jose, Calif.). The TR-FRET assay was conducted in a 384-well white OptiPlate™ (PerkinElmer, Waltham, Mass.) in a total volume of 40 μL. The reaction mixture contained 0.1 nM Mcl-1(171-327), 0.05 nM biotin-Bim(51-76), 0.05 nM LANCE® Eu-W1024 Anti-6×His (PerkinElmer), 0.072 nM Streptavidin-Xlent (Cisbio, Bedford, Mass.), and serially diluted test compounds in the binding buffer of 20 mM Hepes, pH 7.5, 150 mM NaCl, 0.016 mM Brij® 35, and 1 mM dithiothreitol. Test compounds were pre-incubated with Mcl-1(171-327) and biotin-Bim (51-76) for 60 min before addition of the detection mixture (LANCE® Eu-W1024 Anti-6×His and Streptavidin-Xlent). The reaction plates were further incubated overnight and then were read on an Envision® multimode reader (PerkinElmer). Fluorescence signals were measured at 620 nm (40-nm bandwidth) and 665 nm (7.5-nm bandwidth) with a 60 μs delay after excitation at 320 nm (75-nm bandwidth). The signal ratio at 665/620 nm corresponded to the Mcl-1/Bim interaction and was used in all data analyses. The IC50 values of test compounds were determined from duplicate data by analyzing competition curves using a four-parameter sigmoidal model in GraphPad Prism (GraphPad Software, San Diego, Calif.) or in Genedata Screener® (Genedata, Basel, Switzerland).

Each structure is given as a SMILES string.

Chain of recombinant human Mcl-1 (Mcl-1/Bim interaction) (Q07820 171-327): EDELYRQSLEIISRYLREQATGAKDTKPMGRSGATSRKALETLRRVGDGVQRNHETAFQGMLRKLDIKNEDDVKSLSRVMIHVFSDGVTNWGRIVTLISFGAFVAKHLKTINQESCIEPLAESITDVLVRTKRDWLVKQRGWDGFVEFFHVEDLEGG

For the molecule `CO[C@]1(CN2CCN(C3COC3)CC2)/C=C/C[C@H](C)[C@@H](C)S(=O)(=O)NC(=O)c2ccc3c(c2)N(C[C@@H]2CC[C@H]21)C[C@@]1(CCCc2cc(Cl)ccc21)CO3` [Example 3, (1S,3′R,6′R,7′R,8′E,11′S,12′R)-6-chloro-7′-methoxy-11′,12′-dimethyl-7′-((4-(3-oxetanyl)-1-piperazinyl)methyl)-3,4-dihydro-2H,15′H-spiro[naphthalene-1,22′-[20]oxa[13]thia[1,14]diazatetracyclo[14.7.2.0˜3,6˜.0˜19,24˜]pentacosa[8,16,18,24]tetraen]-15′-one 13′,13′-dioxide], the “in vivo efficacy in a tumor PD model relative to Reference Compound 1” value in the experiment on OPM-2 Luc cells was “superior in vivo efficacy”. The IC50 in experiment [1] stood at 0.06 µM.
As to `CCO[C@]1(CN2CCN(C3COC3)CC2)/C=C/C[C@H](C)[C@@H](CCOC)S(=O)(=O)NC(=O)c2ccc3c(c2)N(C[C@@H]2CC[C@H]21)C[C@@]1(CCCc2cc(Cl)ccc21)CO3` [Example 14, (1S,3′R,6′R,7′R,8′E,11′S,12′R)-6-chloro-7′-ethoxy-12′-(2-methoxyethyl)-11′-methyl-7′-((4-(3-oxetanyl)-1-piperazinyl)methyl)-3,4-dihydro-2H,15′H-spiro[naphthalene-1,22′-[20]oxa[13]thia[1,14]diazatetracyclo[14.7.2.0˜3,6˜.0˜19,24˜]pentacosa[8,16,18,24]tetraen]-15′-one 13′,13′-dioxide], the IC50 in experiment [2] turned out to be 0.08 nM. In the experiment on OPM-2 Luc cells, the “in vivo efficacy in a tumor PD model relative to Reference Compound 1” value is given as “superior in vivo efficacy”.
Take `CCO[C@]1(CN2CCN3CCOC[C@@H]3C2)/C=C/C[C@H](C)[C@@H](C)S(=O)(=O)NC(=O)c2ccc3c(c2)N(C[C@@H]2CC[C@H]21)C[C@@]1(CCCc2cc(Cl)ccc21)CO3` [Example 1, (1S,3′R,6′R,7′R,8′E,11′S,12′R)-6-chloro-7′-ethoxy-7′-((9aS)-hexahydropyrazino[2,1-c][1,4]oxazin-8(1H)-ylmethyl)-11′,12′-dimethyl-3,4-dihydro-2H,15′H-spiro[naphthalene-1,22′-[20]oxa[13]thia[1,14]diazatetracyclo[14.7.2.0˜3,6˜.0˜19,24˜]pentacosa[8,16,18,24]tetraen]-15′-one 13′,13′-dioxide]: the “in vivo efficacy in a tumor PD model relative to Reference Compound 1” value with OPM-2 Luc cells is recorded as “superior in vivo efficacy”. Further, in experiment [1], the IC50 is 0.085 µM.
In the case of `CCO[C@]1(CN2CCN(C3COC3)CC2)/C=C/C[C@H](C)[C@@H](C)S(=O)(=O)NC(=O)c2ccc3c(c2)N(C[C@@H]2CC[C@H]21)C[C@@]1(CCCc2cc(Cl)ccc21)CO3` [Example 2, (1S,3′R,6′R,7′R,8′E,11′S,12′R)-6-chloro-7′-ethoxy-11′,12′-dimethyl-7′-((4-(3-oxetanyl)-1-piperazinyl)methyl)-3,4-dihydro-2H,15′H-spiro[naphthalene-1,22′-[20]oxa[13]thia[1,14]diazatetracyclo[14.7.2.0˜3,6˜.0˜19,24˜]pentacosa[8,16,18,24]tetraen]-15′-one 13′,13′-dioxide], the IC50 in experiment [2] was 0.109 nM. Moreover, the “in vivo efficacy in a tumor PD model relative to Reference Compound 1” value in the experiment on OPM-2 Luc cells was “superior in vivo efficacy”.
As for `CO[C@]1(CN2CCN3CCOC[C@@H]3C2)/C=C/C[C@H](C)[C@@H](C)S(=O)(=O)NC(=O)c2ccc3c(c2)N(C[C@@H]2CC[C@H]21)C[C@@]1(CCCc2cc(Cl)ccc21)CO3` [Example 4, (1S,3′R,6′R,7′R,8′E,11′S,12′R)-6-chloro-7′-((9aS)-hexahydropyrazino[2,1-c][1,4]oxazin-8(1H)-ylmethyl)-7′-methoxy-11′,12′-dimethyl-3,4-dihydro-2H,15′H-spiro[naphthalene-1,22′-[20]oxa[13]thia[1,14]diazatetracyclo[14.7.2.0˜3,6˜.0˜19,24˜]pentacosa[8,16,18,24]tetraen]-15′-one 13′,13′-dioxide], the “in vivo efficacy in a tumor PD model relative to Reference Compound 1” value in the experiment with OPM-2 Luc cells is “superior in vivo efficacy”. Also, the IC50 in experiment [1] turned out to be 0.094 µM.
